The target of the test is T1, O‐Mad2^∆C10 (Homo sapiens, UniProt Q13257).
T1 construct: His6-DoubleStrep-TEV (N); made in house
In words: NMR titration / HSQC: Cdc20^MIM with O-Mad2^∆C10 (trapped open state). It is filed as binding. Conditions: 25°C; for binding to Mad2^∆C10: NMR titration / HSQC, two-fold molar excess of peptide, spectra within 15 minutes (Figure S6). An excerpt: The cloning of human wild‐type Mad2 and the mutant Mad2^R133A by the USER® method (NEB) into the pRSFDuet‐1 vector (71341‐3, Sigma‐Aldrich) with a His6‐DoubleStrep‐TEV tag at its N‐terminus was described previously (Fischer et al., [2022]). For this study, Mad2 mutants were generated as follows. The Mad2^LL expression construct was generated from the wild‐type Mad2 expression vector (Fischer et al., [2022]) by replacing residues 109–117 (TAKDDSAPR) with GSG. Mad2^ΔC10 and Mad2^Δβ7/β8 were modified from wild‐type Mad2 expression construct by deleting residues 196–205 and 166–205, respectively. Mad2^LL/R133A was modified by substituting Ala for Arg133 from the Mad2^LL expression construct. Mad2^LL/ΔC10 was modified from Mad2^LL by deleting residues 196–205. Mad2^L13A/R133A was generated from the Mad2^R133A mutant. Site‐directed mutagenesis of Mad2 was completed using the QuikChangeTM Lightning Site‐Directed Mutagenesis Kit (Agilent) developed by Stratagene Inc. (La Jolla, CA).
All NMR data on Mad2 were acquired in a 5 mm tube at 25°C in 20 mM HEPES, pH 7.0, 100 mM NaCl, 1 mM TCEP, 5% D2O. Backbone assignment experiments and all spectra, unless otherwise denoted, were collected using an in‐house Bruker 800 MHz Avance III spectrometer, equipped with a triple resonance TCI CryoProbe. 2D spectra were acquired using BEST ^1H,^15N‐TROSY HSQC, with 16 scans and a recycle delay of 400 ms, giving an experimental time of 12 min per spectrum. A Bruker 950 MHz Avance III spectrometer (MRC Biomedical NMR Centre, Francis Crick Institute) was used for the residue conversion rate analysis and the characterization of Mad2 dimers. Most experiments, including all backbone experiments, were acquired with 100 μM samples; the residue‐specific conversion rate analysis and characterization of Mad2 dimers utilized 200 μM samples and 300 μM samples, respectively.
Mad2LL (grey), Mad2∆C10 (green) and Mad2LL/∆C10 (purple). […] 15N{1H}‐ heteronuclear NOE were measured at 298 K. Regions that are highly dynamic are highlighted in yellow. e. […]

Residues, ends and D or L forms follow the SMILES beside them.

T1 sequence (Q13257 1-195): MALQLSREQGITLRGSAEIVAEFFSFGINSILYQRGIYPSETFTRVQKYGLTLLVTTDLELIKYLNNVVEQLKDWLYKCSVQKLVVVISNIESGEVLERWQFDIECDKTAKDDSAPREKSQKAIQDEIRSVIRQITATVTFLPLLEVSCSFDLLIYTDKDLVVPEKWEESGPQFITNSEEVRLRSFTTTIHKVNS

Take `CC[C@H](C)[C@H](NC(=O)[C@H](CCCCN)NC(=O)[C@H](C)NC(=O)[C@H](CCC(=O)O)NC(=O)[C@H](CCC(=O)O)NC(=O)[C@@H](NC(=O)[C@H](CC(=O)O)NC(=O)[C@@H](N)Cc1ccccc1)C(C)C)C(=O)N[C@@H](CC(C)C)C(=O)N[C@@H](CCCNC(=N)N)C(=O)N[C@@H](CC(C)C)C(=O)N[C@@H](CO)C(=O)NCC(=O)N[C@@H](CCCCN)C(=O)N1CCC[C@H]1C(=O)N[C@@H](CCC(N)=O)C(=O)N[C@@H](CC(N)=O)C(=O)N[C@@H](C)C(=O)N1CCC[C@H]1C(=O)N[C@@H](CCC(=O)O)C(=O)NCC(=O)N[C@@H](Cc1ccc(O)cc1)C(=O)N[C@@H](CCC(N)=O)C(=O)N[C@@H](CC(N)=O)C(=O)N[C@@H](CCCNC(=N)N)C(=O)N[C@@H](CC(C)C)C(=O)N[C@@H](CCCCN)C(=O)N[C@H](C(=O)N[C@@H](CC(C)C)C(=O)N[C@@H](Cc1ccc(O)cc1)C(=O)O)C(C)C` [Cdc20^MIM‐123‐152] (H-FDVEEAKILRLSGKPQNAPEGYQNRLKVLY-OH; N-terminus and C-terminus assumed): the “binding to Mad2^∆C10” value is on record as “No binding”.
Consider “EHQKAWALNLNGFDVEEAKILRLSGKPQ [Cdc20^MIM‐111‐138, Cdc20^MIM peptide spanning Cdc20 residues 111–138]”, for which the “binding to Mad2^∆C10” value was “No binding”. Under “O-Mad2^∆C10 100 μM, two-fold molar excess peptide, 24 h time course”, the “O- to C-Mad2 conversion, in words” value was “eliminated”.

For the origin of these results see PMC11947619, “Molecular mechanism of Mad2 conformational conversion promoted by the Mad2‐interaction motif of Cdc20” (Protein Science : A Publication of the Protein Society, 2025).
